Measurements: PubChem BioAssay (NCI)
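Results reflect a 48-hour exposure of cells in 96-well plates to compound at five concentrations. TGI: total growth inhibition.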

How the values were obtained:
Assay in all cases: growth of human tumour cells (NCI), 48 h
SF-539 CNS = system: SF-539 CNS
UACC-62 melanoma = system: UACC-62 melanoma
RXF 393 renal = system: RXF 393 renal
HL-60(TB) leukemia = system: HL-60(TB) leukemia
KM20L2 colon = system: KM20L2 colon
EKVX NSCLC = system: EKVX NSCLC
OVCAR-4 ovarian = system: OVCAR-4 ovarian
KM12 colon = system: KM12 colon
SF-268 CNS = system: SF-268 CNS
OVCAR-8 ovarian = system: OVCAR-8 ovarian
DMS 114 small cell lung = system: DMS 114 small cell lung
HCT-116 colon = system: HCT-116 colon
UO-31 renal = system: UO-31 renal
OVCAR-5 ovarian = system: OVCAR-5 ovarian
U251 CNS = system: U251 CNS
MDA-MB-231 breast = system: MDA-MB-231 breast
BT-549 breast = system: BT-549 breast
MCF7 breast = system: MCF7 breast
SK-MEL-2 melanoma = system: SK-MEL-2 melanoma
DMS 273 small cell lung = system: DMS 273 small cell lung

SMILES	TGI (SF-539 CNS)	TGI (UACC-62 melanoma)	TGI (RXF 393 renal)	TGI (HL-60(TB) leukemia)	TGI (KM20L2 colon)	TGI (EKVX NSCLC)	TGI (OVCAR-4 ovarian)	TGI (KM12 colon)	TGI (SF-268 CNS)	TGI (OVCAR-8 ovarian)	TGI (DMS 114 small cell lung)	TGI (HCT-116 colon)	TGI (UO-31 renal)	TGI (OVCAR-5 ovarian)	TGI (U251 CNS)	TGI (MDA-MB-231 breast)	TGI (BT-549 breast)	TGI (MCF7 breast)	TGI (SK-MEL-2 melanoma)	TGI (DMS 273 small cell lung)
N#Cc1ccccc1NC(=O)C(=O)C(C(=O)c1ccncc1)C1OC(=O)c2ccccc21 (stereo unspecified)	> 100 µM	> 100 µM	> 100 µM	> 100 µM	> 100 µM	> 100 µM	> 100 µM	> 100 µM	> 100 µM	> 100 µM	> 100 µM	> 100 µM	> 100 µM	> 100 µM	> 100 µM	–	–	–	–	–
O=C(O)/C=C/c1ccc(OS(=O)(=O)O)cc1	> 100 µM	> 100 µM	> 100 µM	> 100 µM	–	> 100 µM	> 100 µM	> 100 µM	> 100 µM	> 100 µM	–	> 100 µM	> 100 µM	> 100 µM	> 100 µM	> 100 µM	> 100 µM	> 100 µM	> 100 µM	–
COn1oc(=O)c2ccccc21	> 100 µM	> 100 µM	> 100 µM	> 100 µM	–	> 100 µM	> 100 µM	> 100 µM	> 100 µM	> 100 µM	–	> 100 µM	> 100 µM	> 100 µM	> 100 µM	> 100 µM	> 100 µM	> 100 µM	> 100 µM	–
CO/N=C(/C(=O)Nc1c[n+](CC(=O)[O-])cs1)c1csc(N)n1	> 100 µM	> 100 µM	–	> 100 µM	> 100 µM	> 100 µM	–	> 100 µM	> 100 µM	> 100 µM	–	> 100 µM	> 100 µM	> 100 µM	> 100 µM	–	–	–	> 100 µM	> 100 µM
COc1ccccc1/C=N/Nc1nnc2c3ccccc3c3ncccc3c2n1	76 µM	> 100 µM	55.6 µM	> 100 µM	–	> 100 µM	60.1 µM	> 100 µM	> 100 µM	> 100 µM	–	> 100 µM	> 100 µM	> 100 µM	> 100 µM	> 100 µM	> 100 µM	> 100 µM	> 100 µM	–
O=C1/C(=C/c2ccccc2)CCc2ccc([N+](=O)[O-])cc21	> 100 µM	> 100 µM	77.7 µM	> 100 µM	–	> 100 µM	> 100 µM	> 100 µM	> 100 µM	> 100 µM	–	> 100 µM	> 100 µM	> 100 µM	> 100 µM	> 100 µM	> 94.4 µM	> 100 µM	38.3 µM	–
COc1ccc(-c2cc(=O)c3cc(Cl)ccc3[nH]2)cc1	> 100 µM	> 100 µM	> 100 µM	> 100 µM	> 100 µM	> 100 µM	> 100 µM	> 100 µM	> 100 µM	> 100 µM	> 100 µM	> 100 µM	> 100 µM	> 100 µM	–	–	–	–	–	–
